Laboratory results: patent US20230322846A9, “NEUROACTIVE STEROIDS AND THEIR METHODS OF USE” (SAGE THERAPEUTICS, INC., priority 2018, published 2023)
pIC50: −log10 of the molar value.

biological target: [35S]-TBPS binding, rat brain cortical membranes; experiment: Steroid inhibition of [35S]-TBPS binding; conditions: 3 nM [35S]-TBPS, in the presence of 5 mM GABA
Summary of the method: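 Rat cortical P2 membranes incubated 90 min at room temperature with 3 nM [35S]-TBPS, […] and test compound (0.5% DMSO final) in NaCl/Na–K phosphate pH 7.4; nonspecific binding with […]. Filter-bound radioactivity counted; IC50 and Imax from nonlinear fits, mean ± SEM.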

Compound | pIC50
CCOC[C@@]1(O)CC[C@H]2[C@H](CC[C@@H]3[C@@H]2CC[C@]2(C)[C@@H]([C@@H](C)n4ncc(C#N)c4N)CC[C@@H]32)C1 [Example 160, 5-amino-1-((R)-1-((3R,5R,8R,9R,10S,13S,14S,17S)-3-(ethoxymethyl)-3-hydroxy-13-methylhexadecahydro-1H-cyclopenta[a]phenanthren-17-yl)ethyl)-1H-pyrazole-4-carbonitrile] | 5.00 to 6.00
CCOC[C@@]1(O)CC[C@H]2[C@H](CC[C@@H]3[C@@H]2CC[C@]2(C)[C@@H]([C@H](C)n4ncc(C#N)c4N)CC[C@@H]32)C1 [Example 161, 5-amino-1-((S)-1-((3R,5R,8R,9R,10S,13S,14S,17S)-3-(ethoxymethyl)-3-hydroxy-13-methylhexadecahydro-1H-cyclopenta[a]phenanthren-17-yl)ethyl)-1H-pyrazole-4-carbonitrile] | 5.00 to 6.00
CCOC[C@@]1(O)CC[C@H]2[C@H](CC[C@@H]3[C@@H]2CC[C@]2(C)[C@@H]([C@@H](C)n4cc(C#N)cn4)CC[C@@H]32)C1 [Example 162, 1-((R)-1-((3R,5R,8R,9R,10S,13S,14S,17S)-3-(ethoxymethyl)-3-hydroxy-13-methylhexadecahydro-1H-cyclopenta[a]phenanthren-17-yl)ethyl)-1H-pyrazole-4-carbonitrile] | 6.00 to 7.00
CCOC[C@@]1(O)CC[C@H]2[C@H](CC[C@@H]3[C@@H]2CC[C@]2(C)[C@@H]([C@H](C)n4cc(C#N)cn4)CC[C@@H]32)C1 [Example 163, 1-((S)-1-((3R,5R,8R,9R,10S,13S,14S,17S)-3-(ethoxymethyl)-3-hydroxy-13-methylhexadecahydro-1H-cyclopenta[a]phenanthren-17-yl)ethyl)-1H-pyrazole-4-carbonitrile] | 5.00 to 6.00
C[C@@H]([C@H]1CC[C@H]2[C@@H]3CC[C@@H]4C[C@](C)(O)CC[C@@H]4[C@H]3CC[C@]12C)n1nccn1 [Example 164, (3R,5R,8R,9R,10S,13S,14S,17S)-17-((S)-1-(2H-1,2,3-triazol-2-yl)ethyl)-3,13-dimethylhexadecahydro-1H-cyclopenta[a]phenanthren-3-ol] | 5.00 to 6.00
C[C@H](Nc1cccc(C#N)c1)[C@H]1CC[C@H]2[C@@H]3CC[C@@H]4C[C@](C)(O)CC[C@@H]4[C@H]3CC[C@]12C [Example 201] | 6.00 to 7.00
C[C@@H](Nc1cccc(C#N)c1)[C@H]1CC[C@H]2[C@@H]3CC[C@@H]4C[C@](C)(O)CC[C@@H]4[C@H]3CC[C@]12C [Example 202] | > 7.00
C[C@@H](Nc1cccnc1)[C@H]1CC[C@H]2[C@@H]3CC[C@@H]4C[C@](C)(O)CC[C@@H]4[C@H]3CC[C@]12C [Example 203] | > 7.00
C[C@H](Nc1cccnc1)[C@H]1CC[C@H]2[C@@H]3CC[C@@H]4C[C@](C)(O)CC[C@@H]4[C@H]3CC[C@]12C [Example 204] | 6.00 to 7.00
C[C@H](Nc1ccc(C#N)cc1)[C@H]1CC[C@H]2[C@@H]3CC[C@@H]4C[C@](C)(O)CC[C@@H]4[C@H]3CC[C@]12C [Example 205] | 5.00 to 6.00
CCOC[C@@]1(O)CC[C@H]2[C@H](CC[C@@H]3[C@@H]2CC[C@]2(C)[C@@H]([C@@H](C)N[C@H](C)c4ccccc4)CC[C@@H]32)C1 [Example 206] | 6.00 to 7.00
CCOC[C@@]1(O)CC[C@@]2(C)[C@H](CC[C@@H]3[C@@H]2CC[C@]2(C)[C@@H]([C@@H](C)N[C@H](C)c4ccccc4)CC[C@@H]32)C1 [Example 207] | 5.00 to 6.00
C[C@@H](N[C@H](C)[C@H]1CC[C@H]2[C@@H]3CC[C@@H]4C[C@](C)(O)CC[C@@H]4[C@H]3CC[C@]12C)c1ccccc1 [Example 208] | 6.00 to 7.00
C[C@H](N[C@H](C)[C@H]1CC[C@H]2[C@@H]3CC[C@@H]4C[C@](C)(O)CC[C@@H]4[C@H]3CC[C@]12C)c1ccccc1 [Example 209] | 6.00 to 7.00
C[C@H](N[C@@H](C)[C@H]1CC[C@H]2[C@@H]3CC[C@@H]4C[C@](C)(O)CC[C@@H]4[C@H]3CC[C@]12C)c1ccccc1 [Example 210] | 5.00 to 6.00
CCOC[C@@]1(O)CC[C@@]2(C)[C@H](CC[C@@H]3[C@@H]2CC[C@]2(C)[C@@H]([C@@H](C)N[C@@H](C)c4ccccc4)CC[C@@H]32)C1 [Example 211] | 6.00 to 7.00
CCOC[C@@]1(O)CC[C@@]2(C)[C@H](CC[C@@H]3[C@@H]2CC[C@]2(C)[C@@H]([C@H](C)N[C@@H](C)c4ccccc4)CC[C@@H]32)C1 [Example 212] | 5.00 to 6.00
CC[C@H](NCc1ccccc1)[C@H]1CC[C@H]2[C@@H]3CC[C@@H]4C[C@@](O)(COC)CC[C@@H]4[C@H]3CC[C@]12C [Example 213, (3R,5R,8R,9R,10S,13S,14S,17S)-17-((S)-1-(benzylamino)propyl)-3-(methoxymethyl)-13-methylhexadecahydro-1H-cyclopenta[a]phenanthren-3-ol] | 5.00 to 6.00

Compound | pIC50
CC[C@@H](NCc1ccccc1)[C@H]1CC[C@H]2[C@@H]3CC[C@@H]4C[C@@](O)(COC)CC[C@@H]4[C@H]3CC[C@]12C [Example 214, (3R,5R,8R,9R,10S,13S,14S,17S)-17-((R)-1-(benzylamino)propyl)-3-(methoxymethyl)-13-methylhexadecahydro-1H-cyclopenta[a]phenanthren-3-ol] | 5.00 to 6.00
Cc1cc(C#N)ccc1N[C@H](C)[C@H]1CC[C@H]2[C@@H]3CC[C@@H]4C[C@](C)(O)CC[C@@H]4[C@H]3CC[C@]12C [Example 250] | > 7.00
Cc1cc(C#N)ccc1N[C@@H](C)[C@H]1CC[C@H]2[C@@H]3CC[C@@H]4C[C@](C)(O)CC[C@@H]4[C@H]3CC[C@]12C [Example 251] | 6.00 to 7.00
COC[C@@]1(O)CC[C@H]2[C@H](CC[C@@H]3[C@@H]2CC[C@]2(C)[C@@H]([C@@H](C)Nc4ccc(C#N)cc4C)CC[C@@H]32)C1 [Example 252] | > 7.00
COC[C@@]1(O)CC[C@H]2[C@H](CC[C@@H]3[C@@H]2CC[C@]2(C)[C@@H]([C@H](C)Nc4ccc(C#N)cc4C)CC[C@@H]32)C1 [Example 253] | 5.00 to 6.00
COC[C@@]1(O)CC[C@H]2[C@H](CC[C@@H]3[C@@H]2CC[C@]2(C)[C@@H]([C@@H](C)Nc4cccc(C#N)c4)CC[C@@H]32)C1 [Example 254] | > 7.00
COC[C@@]1(O)CC[C@H]2[C@H](CC[C@@H]3[C@@H]2CC[C@]2(C)[C@@H]([C@H](C)Nc4cccc(C#N)c4)CC[C@@H]32)C1 [Example 255] | 5.00 to 6.00
COC[C@@]1(O)CC[C@H]2[C@H](CC[C@@H]3[C@@H]2CC[C@]2(C)[C@@H]([C@@H](C)Nc4ccc(C#N)cc4)CC[C@@H]32)C1 [Example 256] | > 7.00
COC[C@@]1(O)CC[C@H]2[C@H](CC[C@@H]3[C@@H]2CC[C@]2(C)[C@@H]([C@H](C)Nc4ccc(C#N)cc4)CC[C@@H]32)C1 [Example 257] | 6.00 to 7.00
COC[C@@]1(O)CC[C@H]2[C@H](CC[C@@H]3[C@@H]2CC[C@]2(C)[C@@H]([C@@H](C)Nc4ccc(C#N)nc4)CC[C@@H]32)C1 [Example 258] | 6.00 to 7.00
CCOC[C@@]1(O)CC[C@H]2[C@H](CC[C@@H]3[C@@H]2CC[C@]2(C)[C@@H]([C@@H](C)Nc4cccc(N5CCCC5=O)c4C)CC[C@@H]32)C1 [Example 259] | > 7.00
CCOC[C@@]1(O)CC[C@H]2[C@H](CC[C@@H]3[C@@H]2CC[C@]2(C)[C@@H]([C@@H](C)Nc4ccc(C#N)cc4C)CC[C@@H]32)C1 [Example 260] | > 7.00
CCOC[C@@]1(O)CC[C@H]2[C@H](CC[C@@H]3[C@@H]2CC[C@]2(C)[C@@H]([C@@H](C)Nc4ccc(C#N)nc4)CC[C@@H]32)C1 [Example 261] | 6.00 to 7.00
CCOC[C@@]1(O)CC[C@H]2[C@H](CC[C@@H]3[C@@H]2CC[C@]2(C)[C@@H]([C@@H](C)Nc4cccnc4F)CC[C@@H]32)C1 [Example 262] | > 7.00
CCOC[C@@]1(O)CC[C@H]2[C@H](CC[C@@H]3[C@@H]2CC[C@]2(C)[C@@H]([C@@H](C)Nc4ccc(-n5ccc(C#N)n5)nc4)CC[C@@H]32)C1 [Example 264] | 6.00 to 7.00
CCOC[C@@]1(O)CC[C@H]2[C@H](CC[C@@H]3[C@@H]2CC[C@]2(C)[C@@H]([C@H](C)Cn4nccn4)CC[C@@H]32)C1 [Example 265, (3R,5R,8R,9R,10S,13S,14S,17R)-17-((S)-1-(2H-1,2,3-triazol-2-yl)propan-2-yl)-3-(ethoxymethyl)-13-methylhexadecahydro-1H-cyclopenta[a]phenanthren-3-ol] | 6.00 to 7.00
CCOC[C@@]1(O)CC[C@H]2[C@H](CC[C@@H]3[C@@H]2CC[C@]2(C)[C@@H]([C@@H](C)Cn4nccn4)CC[C@@H]32)C1 [Example 266, (3R,5R,8R,9R,10S,13S,14S,17R)-17-((R)-1-(2H-1,2,3-triazol-2-yl)propan-2-yl)-3-(ethoxymethyl)-13-methylhexadecahydro-1H-cyclopenta[a]phenanthren-3-ol] | 6.00 to 7.00
CCOC[C@@]1(O)CC[C@H]2[C@H](CC[C@@H]3[C@@H]2CC[C@]2(C)[C@@H]([C@H](C)Cn4ccnn4)CC[C@@H]32)C1 [Example 267, (3R,5R,8R,9R,10S,13S,14S,17R)-17-((S)-1-(1H-1,2,3-triazol-1-yl)propan-2-yl)-3-(ethoxymethyl)-13-methylhexadecahydro-11H-cyclopenta[a]phenanthren-3-ol] | > 7.00
